Assays:
[1] = tested on: HT29; experiment: MTT cell viability assay, HT29; assay type: cell-based, human
Experimental: (§1) FIG. 1 Illustrates results generated when HT29, A375SM, MEL624, SK-MEL-2, H1299, HCT116, Raji, HL60 and MDA-MB231 cells were treated with log-scale serial diluted concentrations of truncated superstolide A (Compound 3) from 1 to 3000 nM for 72 hours and the effect of truncated superstolide A on cell death was measured by performing a MTT assay.
(§2) Cell Viability Assay: The antiproliferative effect of compound 3 was determined by performing 3-(4,5-dimethylthiazol-2-yl)-2,5-diphenyltetrazolim (MTT) assay. Briefly, cancer cells at varying concentrations—2,000 cells/well (A375SM, MEL624 and SK-MEL-2,) and 5,000 cells/well (HT29, H1299, and HCT116, Raji, and HL-60)—were seeded onto a 96-well plate in triplicates. […] At the end of the 72 hours period, cells were treated with the MTT reagent (Sigma-Aldrich, M O) and the antiproliferative effect of compound 3 was measured as previously described (Zhou Y, Achanta G, Pelicano H, Gandhi V, Plunkett W, and Huang P (2002). Molecular Pharmacology 61:222-229). […]
(§3) The antiproliferative effect of compound 3 was evaluated in two human colon carcinoma cell lines (HT29, HCT116), three malignant melanoma cell lines (A375SM, MEL624, and SK-MEL-2), one human non-small cell lung carcinoma cell line (H1299), one lymphoma cell line (Raji), one leukemia cell line (HL-60), and one malignant breast cancer cell line (MDA-MB231) using MTT assay. […]

[2] = tested on: A375SM; experiment: MTT cell viability assay, A375SM; assay type: cell-based; details: Homo sapiens, A375-SM, 72 hours, read-out: IC50 (nM), antiproliferative effect
Experimental: as §1, §2, §3

[3] = tested on: MEL624; experiment: MTT cell viability assay, MEL624; assay type: cell-based; details: 72 hours, read-out: IC50 (nM), antiproliferative effect
Experimental: as §1, §2, §3

[4] = tested on: SK-MEL-2; experiment: MTT cell viability assay, SK-MEL-2; assay type: cell-based; details: Homo sapiens, 72 hours, read-out: IC50 (nM), antiproliferative effect
Experimental: as §1, §2, §3

[5] = tested on: H1299; experiment: MTT cell viability assay, H1299; assay type: cell-based; details: Homo sapiens, NCI-H1299, 72 hours, read-out: IC50 (nM), antiproliferative effect
Experimental: as §1, §2, §3

[6] = tested on: HCT116; experiment: MTT cell viability assay, HCT116; assay type: cell-based; details: Homo sapiens, HCT-116, 72 hours, read-out: IC50 (nM), antiproliferative effect
Experimental: as §1, §2, §3

[7] = tested on: Raji; experiment: MTT cell viability assay, Raji; assay type: cell-based; details: Homo sapiens, 72 hours, read-out: IC50 (nM), antiproliferative effect
Experimental: as §1, §2, §3

[8] = tested on: HL60; experiment: MTT cell viability assay, HL60; assay type: cell-based; details: Homo sapiens, HL-60, 72 hours, read-out: IC50 (nM), antiproliferative effect
Experimental: as §1, §2, §3

[9] = tested on: MDA-MB231; experiment: MTT cell viability assay, MDA-MB231; assay type: cell-based; details: Homo sapiens, MDA-MB-231, 72 hours, read-out: IC50 (nM), antiproliferative effect
Experimental: as §1, §2, §3

[10] = tested on: the other eight tested cell lines; experiment: MTT cell viability assay, other eight tested cell lines (summary); assay type: cell-based; details: Homo sapiens; the other eight tested cell lines (all but HT-29); read-out: IC50 in suppressing tumor cell proliferation
Experimental: Cell Viability Assay: The antiproliferative effect of compound 3 was determined by performing 3-(4,5-dimethylthiazol-2-yl)-2,5-diphenyltetrazolim (MTT) assay. Briefly, cancer cells at varying concentrations—2,000 cells/well (A375SM, MEL624 and SK-MEL-2,) and 5,000 cells/well (HT29, H1299, and HCT116, Raji, and HL-60)—were seeded onto a 96-well plate in triplicates. Following an overnight incubation, the cells were treated with log-scale serially increasing concentrations of compound 3 for 72 hours at 37° C. At the end of the 72 hours period, cells were treated with the MTT reagent (Sigma-Aldrich, M O) and the antiproliferative effect of compound 3 was measured as previously described (Zhou Y, Achanta G, Pelicano H, Gandhi V, Plunkett W, and Huang P (2002). Molecular Pharmacology 61:222-229). The IC50 values correspond to a concentration of compound 3 that inhibits cell viability by 50%.
The antiproliferative effect of compound 3 was evaluated in two human colon carcinoma cell lines (HT29, HCT116), three malignant melanoma cell lines (A375SM, MEL624, and SK-MEL-2), one human non-small cell lung carcinoma cell line (H1299), one lymphoma cell line (Raji), one leukemia cell line (HL-60), and one malignant breast cancer cell line (MDA-MB231) using MTT assay. The data (MTT curves and IC50 tables) are shown in FIG. 1 and in the following Table 1.

[11] = tested on: NCI-60 cell assay; experiment: NCI-60 cell assay; assay type: cell-based; details: leukemia, non-small cell lung cancer, colon cancer, CNS cancer, melanoma, ovarian cancer, renal cancer, prostate cancer, breast cancer
[12] = tested on: HT-29 cell; details: read-out: IC50, antiproliferative effect; cited from earlier work

Row | Molecule | potency in suppressing tumor cell proliferation relative to superstolide A ([1]; HT-29 cell, versus parent natural product superstolide A) | IC50 ([1]; Homo sapiens, HT-29, HT29, 72 hours, MTT assay, read-out: IC50 (nM), antiproliferative effect) | IC50 [2] | IC50 [3] | IC50 [4] | IC50 [5] | IC50 [6] | IC50 [7] | IC50 [8] | IC50 [9] | IC50 [10] | activity in NCI-60 cell assay [11] | IC50 [12]
1 | CC(=O)N[C@H](C)[C@@H](O)[C@@H](C)[C@@H]1OC(=O)/C=C/C=C(C)\C=C\[C@]2(C)CCC=C[C@@H]2/C=C(C)/C=C/[C@H]1C [Compound 3] | about seven times more potent | 7.54 nM | 36.5 nM | 53.1 nM | 63.8 nM | 56.8 nM | 52.7 nM | 76.7 nM | 11.8 nM | 18 nM | 10 to 70 nM | active | –
2 | superstolide A | – | – | – | – | – | – | – | – | – | – | – | – | 64 nM

From US9346781B2, “Therapeutic compounds” (UNIVERSITY OF IOWA RESEARCH FOUNDATION, priority 2012, dated 2016)
